US9931379B2, “Oxyntomodulin analogs and methods of making and using same” (The Research Foundation for The State University of New York, priority 2015, dated 2018)
Starred links: 1 amine or outer side, 2 acyl side, 3 side chain; linkers in the order of their positions; H or OH if unused. Positions of bridges follow the written chain, without caps; N, C: chain ends. Non-standard residues stand in square brackets, D forms with d. Residues, ends and D or L forms follow the SMILES beside them. CH2(3,3'-bipyridine-6,6')CH2 = c1cc(C[*:1])ncc1-c1ccc(C[*:2])nc1; Biphenyl(4,4'-CH2)2 = c1cc(-c2ccc(C[*:2])cc2)ccc1C[*:1]; X3 = C(=Cc1ccc(C=CC[*:2])cc1)C[*:1]

Key:
CD1 mice = assay: Oral glucose tolerance test (OGTT); format: in vivo; settings: 10 μg/mice s.c. 4 hours before oral glucose challenge
GLP-1R = molecular target: T1, GLP-1R (Homo sapiens, UniProt P43220); assay: CRE-driven luciferase reporter assay, HEK293 cells overexpressing GLP-1R; format: cell-based
T1 construct: expressed in transfected cells
Protocol: (§1) The surviving cells (referred to as CRE-HEK293) were expanded and then transfected with a G418 selective mammalian expression plasmid encoding human GCGR or GLP-1R, followed by geneticin selection (Life technologies, Carlsbad, Calif.). Single-colony stable cell lines expressing both CRE-luciferase and GCGR/GLP-1R were then established for in vitro activity assays.
(§2) HEK293-GCGR-CRE and HEK293-GLP-1R-CRE cells were seeded in a white 384-well plate at a density of 5,000 cells per well and cultured for 24 hours in DMEM with 10% FBS at 37° C. with 5% CO2. Cells were treated with different peptides in a dose dependent manner. After 24 hours, 10 μL of Bright-Glo reagent (Promega, Madison, Wis.) was added to each well and luminescence was determined using an Envision multilabel plate reader (PerkinElmer, Waltham, Mass.). The EC50 of each peptide was calculated using GraphPad Prism 6 software (GraphPad, San Diego, Calif.).

GCGR = molecular target: T2, GCGR (Homo sapiens, UniProt P47871); assay: CRE-driven luciferase reporter assay, HEK293 cells overexpressing GCGR; format: cell-based
T2 construct: expressed in transfected cells
Protocol: as §1, §2

[1] = Far-UV circular dichroism measurement; format: physicochemical; settings: measure of relative amounts of 310- and α-helix
Protocol: The sensitivity and scan rate of the spectrophotometer were set to 100 mdeg and 50 nm/min, respectively. All peptides were dissolved in 0.1×PBS to reach final concentrations of 0.2 mg/mL.

[2] = In vitro half-life after incubation with freshly isolated mouse serum (GLP-1R activation assay); format: in vitro ADME; settings: read-out: t1/2 in vitro (converted)
[3] = In vivo pharmacokinetic studies in mice; plasma peptide measured by GLP-1R reporter assay; settings: mouse, 0.3 mg/kg
Protocol: All animal care and experimental procedures were approved by the Institutional Animal Care and Use Committee (IACUC) of California Institute for Biomedical Research and strictly followed the NIH guidelines for humane treatment of animals. Female CD-1 mice obtained from Charles River Limited were used after overnight food deprivation for in vivo PK studies. Peptides were dissolved in pH adjusted phosphate buffered saline (PBS, pH=7.4). 100 μL of each peptide (0.3 mg/kg) was administered to each mouse by either i.v. or s.c routes. Food was provided to mice immediately after bleeding at 30 minutes. […] The resulting supernatant plasma was then stored at −80° C. for peptide concentration determination. Peptide concentration in the plasma was determined by in vitro GLP1R activation reporter assay.
HEK 293 cells overexpressing GLP1R and CRE-Luc reporter were treated with plasma samples at different time points (5 point dose response, starting from 1:20 dilution of each plasma sample), incubated for 16 hours in DMEM with 10% FBS at 37° C. with 5% CO2, and the firefly luciferase activity was measured. At the same time, injected peptides were used to obtain standard curves and parameters for Bottom, Top, EC50, Hill Slope. Random luciferase unit (RLU) for each plasma sample was used to calculate the peptide concentrations in plasma (nmol/L), using parameters derived from the standard curve (RLU=Bottom+(Top−Bottom)/(1+10^((Log EC50−Conc.)*Hill Slope)). Peptide concentrations in plasma were obtained and plotted against time points to obtain in vivo half-life of each peptide, using WinNonLin Phoenix software (Pharsight Corp, St. Louis, Mo.).

[4] = iv, intravenously injected, read-out: elimination half-life (converted)
[5] = sc, administered subcutaneously, read-out: half-life (converted)
[6] = compared to its linear counterpart
[7] = compared to its D,L counterpart, peptide 1

T2 sequence (P47871 26-477): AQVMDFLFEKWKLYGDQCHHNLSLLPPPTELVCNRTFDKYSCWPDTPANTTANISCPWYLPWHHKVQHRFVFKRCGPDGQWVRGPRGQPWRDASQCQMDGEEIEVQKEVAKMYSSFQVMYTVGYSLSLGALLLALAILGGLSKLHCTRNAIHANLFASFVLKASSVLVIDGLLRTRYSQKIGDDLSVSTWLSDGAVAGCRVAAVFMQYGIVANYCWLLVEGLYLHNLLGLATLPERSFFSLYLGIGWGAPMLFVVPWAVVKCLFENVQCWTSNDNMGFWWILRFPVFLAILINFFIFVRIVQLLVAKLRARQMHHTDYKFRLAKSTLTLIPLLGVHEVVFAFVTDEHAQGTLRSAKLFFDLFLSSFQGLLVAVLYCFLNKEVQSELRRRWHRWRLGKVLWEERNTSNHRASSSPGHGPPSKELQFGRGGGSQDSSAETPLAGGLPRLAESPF
T1 sequence (P43220 24-463): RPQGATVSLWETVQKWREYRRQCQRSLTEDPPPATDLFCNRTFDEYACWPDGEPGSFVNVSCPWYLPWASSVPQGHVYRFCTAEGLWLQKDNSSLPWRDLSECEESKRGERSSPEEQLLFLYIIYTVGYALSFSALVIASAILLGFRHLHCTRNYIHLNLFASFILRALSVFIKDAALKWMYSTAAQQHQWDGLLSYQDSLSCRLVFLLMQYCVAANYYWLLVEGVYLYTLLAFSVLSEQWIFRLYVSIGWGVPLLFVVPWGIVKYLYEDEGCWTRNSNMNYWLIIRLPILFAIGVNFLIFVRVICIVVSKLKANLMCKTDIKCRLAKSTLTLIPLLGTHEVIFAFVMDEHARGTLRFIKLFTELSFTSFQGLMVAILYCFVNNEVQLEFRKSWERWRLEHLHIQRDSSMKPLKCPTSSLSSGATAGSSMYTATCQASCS

Row | ratio of [θ]222/[θ]208 [1] | half-life [2] | half-life [3, 4] | half-life [3, 5] | Compound | blood glucose levels decreased to (CD1 mice) | other results
1 | – | – | – | – | exendin-4 [Ex-4, reference compound] | – | decrease of the area under curve (AUC) of blood glucose (CD1 mice): 30%
2 | – | – | – | – | CC[C@H](C)[C@H](NC(=O)[C@H](CC(N)=O)NC(=O)[C@H](CC(N)=O)NC(=O)[C@H](CCCNC(=N)N)NC(=O)[C@H](CC(N)=O)NC(=O)[C@H](CCCNC(=N)N)NC(=O)[C@H](CCCCN)NC(=O)[C@@H](NC(=O)[C@H](CC(N)=O)NC(=O)[C@H](CCSC)NC(=O)[C@H](CC(C)C)NC(=O)[C@H](Cc1c[nH]c2ccccc12)NC(=O)[C@@H]1CSCC=Cc2ccc(cc2)C=CCSC[C@H](NC(=O)[C@H](CCC(=O)O)NC(=O)[C@H](CC(=O)O)NC(=O)[C@H](CC(C)C)NC(=O)[C@H](Cc2ccc(O)cc2)NC(=O)[C@H](CCCCN)NC(=O)[C@H](CO)NC(=O)[C@H](Cc2ccc(O)cc2)NC(=O)[C@H](CC(=O)O)NC(=O)[C@H](CO)NC(=O)[C@@H](NC(=O)[C@H](Cc2ccccc2)NC(=O)[C@@H](NC(=O)CNC(=O)[C@H](CCC(N)=O)NC(=O)[C@@H](CO)NC(=O)[C@@H](N)Cc2c[nH]cn2)[C@@H](C)O)[C@@H](C)O)C(=O)N[C@@H](C)C(=O)N[C@@H](C)C(=O)N[C@@H](CCCCN)C(=O)N[C@@H](CCC(=O)O)C(=O)N[C@@H](Cc2ccccc2)C(=O)N[C@@H]([C@@H](C)CC)C(=O)N1)[C@@H](C)O)C(=O)N[C@@H](C)C(N)=O [compound 12] (H-H[dS]QGTFTSDYSKYLDECAAKEFICWLMNTKRNRNNIA-NH2; linker 17-24 via X3) | – | EC50 (GLP-1R; Table 2, mean and standard deviation, assay performed three times, read-out: Agonist activity (nM) GLP-1R): 0.45 ± 0.03 nM; EC50 (GCGR; Table 2, mean and standard deviation, assay performed three times, read-out: Agonist activity (nM) GCGR): 1 ± 0.12 nM
3 | ~1.0 | 13 h | 1.4 h | 1.9 h | CC[C@H](C)[C@H](NC(=O)[C@H](CC(N)=O)NC(=O)[C@H](CC(N)=O)NC(=O)[C@H](CCCNC(=N)N)NC(=O)[C@H](CC(N)=O)NC(=O)[C@H](CCCNC(=N)N)NC(=O)[C@H](CCCCN)NC(=O)[C@@H](NC(=O)[C@H](CC(N)=O)NC(=O)[C@H](CCSC)NC(=O)[C@H](CC(C)C)NC(=O)[C@H](Cc1c[nH]c2ccccc12)NC(=O)[C@@H]1CSCc2ccc(cn2)-c2ccc(nc2)CSC[C@H](NC(=O)[C@H](CCC(=O)O)NC(=O)[C@H](CC(=O)O)NC(=O)[C@H](CC(C)C)NC(=O)[C@H](Cc2ccc(O)cc2)NC(=O)[C@H](CCCCN)NC(=O)[C@H](CO)NC(=O)[C@H](Cc2ccc(O)cc2)NC(=O)[C@H](CC(=O)O)NC(=O)[C@H](CO)NC(=O)[C@@H](NC(=O)[C@H](Cc2ccccc2)NC(=O)[C@@H](NC(=O)CNC(=O)[C@H](CCC(N)=O)NC(=O)[C@@H](CO)NC(=O)[C@@H](N)Cc2c[nH]cn2)[C@@H](C)O)[C@@H](C)O)C(=O)N[C@@H](C)C(=O)N[C@@H](C)C(=O)N[C@@H](CCCCN)C(=O)N[C@@H](CCC(=O)O)C(=O)N[C@@H](Cc2ccccc2)C(=O)N[C@@H]([C@@H](C)CC)C(=O)N1)[C@@H](C)O)C(=O)N[C@@H](C)C(N)=O [peptide 11] (H-H[dS]QGTFTSDYSKYLDECAAKEFICWLMNTKRNRNNIA-NH2; linker 17-24 via CH2(3,3'-bipyridine-6,6')CH2) | 45% | greater efficacy in receptor activation (GLP-1R; compared to peptide 9, GLP-1R and GCGR): 3-4 fold
4 | ~1.0 | 13 h | 1.2 h | 1.9 h | CC[C@H](C)[C@H](NC(=O)[C@H](CC(N)=O)NC(=O)[C@H](CC(N)=O)NC(=O)[C@H](CCCNC(=N)N)NC(=O)[C@H](CC(N)=O)NC(=O)[C@H](CCCNC(=N)N)NC(=O)[C@H](CCCCN)NC(=O)[C@@H](NC(=O)[C@H](CC(N)=O)NC(=O)[C@H](CCSC)NC(=O)[C@H](CC(C)C)NC(=O)[C@H](Cc1c[nH]c2ccccc12)NC(=O)[C@@H]1CSCc2ccc(cc2)-c2ccc(cc2)CSC[C@H](NC(=O)[C@H](CCC(=O)O)NC(=O)[C@H](CC(=O)O)NC(=O)[C@H](CC(C)C)NC(=O)[C@H](Cc2ccc(O)cc2)NC(=O)[C@H](CCCCN)NC(=O)[C@H](CO)NC(=O)[C@H](Cc2ccc(O)cc2)NC(=O)[C@H](CC(=O)O)NC(=O)[C@H](CO)NC(=O)[C@@H](NC(=O)[C@H](Cc2ccccc2)NC(=O)[C@@H](NC(=O)CNC(=O)[C@H](CCC(N)=O)NC(=O)[C@@H](CO)NC(=O)[C@@H](N)Cc2c[nH]cn2)[C@@H](C)O)[C@@H](C)O)C(=O)N[C@@H](C)C(=O)N[C@@H](C)C(=O)N[C@@H](CCCCN)C(=O)N[C@@H](CCC(=O)O)C(=O)N[C@@H](Cc2ccccc2)C(=O)N[C@@H]([C@@H](C)CC)C(=O)N1)[C@@H](C)O)C(=O)N[C@@H](C)C(N)=O [peptide 9] (H-H[dS]QGTFTSDYSKYLDECAAKEFICWLMNTKRNRNNIA-NH2; linker 17-24 via Biphenyl(4,4'-CH2)2) | 40% | increase in activity toward GLP-1R on crosslinking (GLP-1R; [6]): 80 fold; increase in activity toward GCGR on crosslinking (GCGR; [6]): 40 fold
5 | – | – | – | – | CC[C@H](C)[C@H](NC(=O)[C@H](CC(N)=O)NC(=O)[C@H](CC(N)=O)NC(=O)[C@H](CCCNC(=N)N)NC(=O)[C@H](CC(N)=O)NC(=O)[C@H](CCCNC(=N)N)NC(=O)[C@H](CCCCN)NC(=O)[C@@H](NC(=O)[C@H](CC(N)=O)NC(=O)[C@H](CCSC)NC(=O)[C@H](CC(C)C)NC(=O)[C@H](Cc1c[nH]c2ccccc12)NC(=O)[C@H](CS)NC(=O)[C@@H](NC(=O)[C@H](Cc1ccccc1)NC(=O)[C@H](CC(=O)O)NC(=O)[C@H](CCC(N)=O)NC(=O)[C@H](C)NC(=O)[C@H](CCCNC(=N)N)NC(=O)[C@@H](CS)NC(=O)[C@H](CO)NC(=O)[C@H](CC(=O)O)NC(=O)[C@H](CC(C)C)NC(=O)[C@H](Cc1ccc(O)cc1)NC(=O)[C@H](CCCCN)NC(=O)[C@H](CO)NC(=O)[C@H](Cc1ccc(O)cc1)NC(=O)[C@H](CC(=O)O)NC(=O)[C@H](CO)NC(=O)[C@@H](NC(=O)[C@H](Cc1ccccc1)NC(=O)[C@@H](NC(=O)CNC(=O)[C@H](CCC(N)=O)NC(=O)[C@@H](CO)NC(=O)[C@@H](N)Cc1c[nH]cn1)[C@@H](C)O)[C@@H](C)O)C(C)C)[C@@H](C)O)C(=O)N[C@@H](C)C(N)=O [peptide 1] (H-H[dS]QGTFTSDYSKYLDS[dC]RAQDFVCWLMNTKRNRNNIA-NH2) | – | GLP-1R activation, result in words (GLP-1R; comparison): reduced potency; GCGR activation, result in words (GCGR; comparison): more potently than peptide 2
6 | – | – | – | – | CC[C@H](C)[C@H](NC(=O)[C@H](CC(N)=O)NC(=O)[C@H](CC(N)=O)NC(=O)[C@H](CCCNC(=N)N)NC(=O)[C@H](CC(N)=O)NC(=O)[C@H](CCCNC(=N)N)NC(=O)[C@H](CCCCN)NC(=O)[C@@H](NC(=O)[C@H](CC(N)=O)NC(=O)[C@H](CCSC)NC(=O)[C@H](CC(C)C)NC(=O)[C@H](Cc1c[nH]c2ccccc12)NC(=O)[C@H](CS)NC(=O)[C@@H](NC(=O)[C@H](Cc1ccccc1)NC(=O)[C@H](CC(=O)O)NC(=O)[C@H](CCC(N)=O)NC(=O)[C@H](C)NC(=O)[C@H](CCCNC(=N)N)NC(=O)[C@H](CS)NC(=O)[C@H](CO)NC(=O)[C@H](CC(=O)O)NC(=O)[C@H](CC(C)C)NC(=O)[C@H](Cc1ccc(O)cc1)NC(=O)[C@H](CCCCN)NC(=O)[C@H](CO)NC(=O)[C@H](Cc1ccc(O)cc1)NC(=O)[C@H](CC(=O)O)NC(=O)[C@H](CO)NC(=O)[C@@H](NC(=O)[C@H](Cc1ccccc1)NC(=O)[C@@H](NC(=O)CNC(=O)[C@H](CCC(N)=O)NC(=O)[C@@H](CO)NC(=O)[C@@H](N)Cc1c[nH]cn1)[C@@H](C)O)[C@@H](C)O)C(C)C)[C@@H](C)O)C(=O)N[C@@H](C)C(N)=O [peptide 4] (H-H[dS]QGTFTSDYSKYLDSCRAQDFVCWLMNTKRNRNNIA-NH2) | – | increase in GLP-1R activity (GLP-1R; [7]): roughly 2 fold; increase in GCGR activity (GCGR; [7]): roughly 2 fold
